Experiments:
Phosphoribulose kinase = assay: Calvin cycle enzyme activity; assay type: biochemical, Anabaena; conditions: 1 mM Ornidazole
Description: (§1) Rubisco was assayed as described by Marcus et al. (2005, ibid) and Snir et al. (2006, ibid). Phospho-ribulose kinase was assayed by conversion of phospho-ribulose to RuBP, which was determined by Rubisco dependent carboxylation with radiolabeled ^14CO2. Plant or cyanobacterial extract was incubated with medium containing 50 mM Hepes pH 8, 10 mM MgCl2, 20 mM NaH^14CO3, 1 mM DTT, 0.5 mM ribose-5-phosphate, ribose-5-phosphate isomerase and activated Rubisco. Phosphoglycerate kinase, GAPDH, FBPase and SBPase were determined as described by Leegood (Leegood R C., 1990. In: Methods in plant biochemistry, Vol 3, pp 15-37, Academic Press).
(§2) However, analysis of Ornidazole effect on various enzymes of the Calvin cycle in Anabaena including ribulose-bisphosphate carboxylase/oxygenase (Rubisco), phosphoglycerate kinase, glyceraldehyde-3-phosphate dehydrogenase (GAPDH), triose-phosphate isomerase, aldolase, fructose and sedoheptulose bisphosphatase and phosphoribulose kinase, has shown inhibition of GAPDH and triose-phosphate isomerase (Table 2).

GAPDH = assay: Calvin cycle enzyme activity; assay type: biochemical, Anabaena; conditions: 1 mM Ornidazole
Description: as §1, §2

Fructose bisphosphatase = assay: Calvin cycle enzyme activity; assay type: biochemical, Anabaena; conditions: 1 mM Ornidazole
Description: as §1, §2

[1] = system: Sedoheptulose bisphosphatase; assay: Calvin cycle enzyme activity; assay type: biochemical, Anabaena; conditions: 1 mM Ornidazole
Description: as §1, §2

Rubisco = target: T1, Rubisco (Nostoc sp., UniProt P00879); assay: Calvin cycle enzyme activity; assay type: biochemical, Anabaena; conditions: 1 mM Ornidazole
T1 construct: endogenous in cells; host or cells: Anabaena PCC7120 extract
Description: as §1, §2

Phosphglycerate kinase = target: T2, Phosphglycerate kinase (Nostoc sp., UniProt Q8YPR1); assay: Calvin cycle enzyme activity; assay type: biochemical, Anabaena; conditions: 1 mM Ornidazole
T2 construct: endogenous in cells; host or cells: Anabaena PCC7120 extract
T2 sequence (Q8YPR1 1-400): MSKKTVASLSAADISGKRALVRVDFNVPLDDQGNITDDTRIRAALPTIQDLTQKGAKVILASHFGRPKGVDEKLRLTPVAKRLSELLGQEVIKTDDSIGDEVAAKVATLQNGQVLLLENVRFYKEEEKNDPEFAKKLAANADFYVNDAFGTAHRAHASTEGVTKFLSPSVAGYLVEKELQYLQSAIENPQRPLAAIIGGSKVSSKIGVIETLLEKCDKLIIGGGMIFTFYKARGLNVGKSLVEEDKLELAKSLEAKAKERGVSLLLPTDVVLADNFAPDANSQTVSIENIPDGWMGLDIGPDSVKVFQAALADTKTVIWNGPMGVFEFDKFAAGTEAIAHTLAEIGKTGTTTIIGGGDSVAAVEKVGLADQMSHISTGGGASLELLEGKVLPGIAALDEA
Description: as §1, §2

Aldolase = assay: Calvin cycle enzyme activity; assay type: biochemical, Anabaena; conditions: 1 mM Ornidazole
Description: as §1, §2

[2] = target: T3, Triose phosphate isomerase (Nostoc sp., UniProt Q8YP17); assay: Enzyme activity in lysed Anabaena spheroplasts treated with 0 to 2 mM Ornidazole; assay type: cell-based, Anabaena PCC7120; design: endogenous in cells; host or cells: Anabaena PCC7120 spheroplasts, lysed after treatment; conditions: 30° C.
T3 sequence (Q8YP17 1-241): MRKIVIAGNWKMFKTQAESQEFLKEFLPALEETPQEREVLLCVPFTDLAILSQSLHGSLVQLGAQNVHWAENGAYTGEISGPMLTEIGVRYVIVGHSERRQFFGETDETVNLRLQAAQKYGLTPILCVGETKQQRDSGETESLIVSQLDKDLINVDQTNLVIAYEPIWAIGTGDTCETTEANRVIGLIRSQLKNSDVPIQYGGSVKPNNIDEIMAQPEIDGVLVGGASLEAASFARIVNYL
Description: Filaments of Anabaena PCC7120 were incubated in a medium containing: 0.5 M sucrose, 10 mM MgCl2, 5 mM Potassium Phosphate, 10 mM MES buffer pH 6.9, 1% (weight/volume) BSA and 1 mg/ml Lysozyme for 30 to 60 min. at 30° C. The spheroplasts yield was monitored by lysis in hypotonic solution. The spheroplasts were spun down and resuspended in a medium containing 0.4 M Mannitol, 10 mM MgCl2, 5 mM Potassium Phosphate and 20 mM Hepes buffer pH 8.0.
To further examine the effect of Ornidazole on these enzymes, the rate of photosynthesis of Anabaena spheroplasts, incubated in a spheroplast medium under saturating light intensity and CO2 concentrations in the presence of 0 to 2 mM Ornidazole at 30° C. was determined, using an O2 electrode. GAPDH and triose-phosphate isomerase activities were determined spectrophotometrically in the spheroplasts upon lysis (200 to 300 μg chlorophyll) using a reaction medium as described in the Materials and Methods section hereinabove.
A clear correlation was found between the reduced activity of triose phosphate isomerase and the declined rate of photosynthesis.

Anabaena PCC7120 = assay: Biodegradation in BG-11 medium in the presence of Anabaena cells (LC-MS); conditions: 0.1 mM, in the presence of cyanobacteria
Description: Ornidazole (molecular mass 220 and 222 due to two isotopes of chlorine) or degradation products were sought by LC-MS. The chromatograms of samples from the first and fourth days are shown in FIG. 7B and FIG. 7C, respectively. The retention time and molecular mass of the isolated molecules are designated.
The concentrations of Ornidazole and its degradation product in the medium were determined during the growth of the cyanobacterium Anabaena PCC7120 and in media lacking cyanobacteria in the dark or under illumination. Ornidazole at 0.1 mM concentration was added to three growth tubes containing BG-11 medium: one growth tube was kept in the dark, the second under light conditions of 60 μmol photons m^−2 sec^−1 and the third tube, to which Anabaena cells were added, was also kept under similar light conditions. Samples from each tube were taken every day, separated on a C18 reverse phase HPLC column, and Ornidazole (molecular mass 220 and 222 due to two isotopes of chlorine) or degradation products were sought by LC-MS. A degradation product of molecular mass 184, identified as C7H9N3O3, was found in all three tubes.

With `Cc1ncc([N+](=O)[O-])n1CC(O)CCl` (centres unmarked) [Ornidazole, 1-chloro-3-(2-methyl-5-nitro-1H-imidazol-1-yl)propan-2-ol] the Activity (Phosphoribulose kinase) was 66.7 μmol × mg^−1chl × h^−1, the Activity (GAPDH) was 1.77 μmol × mg^−1chl × h^−1 and the “inhibition of enzyme activity” value (GAPDH) was 98%-100. The Activity (Fructose bisphosphatase) was 71 μmol × mg^−1chl × h^−1, the Activity [1] was 62 μmol × mg^−1chl × h^−1 and the Activity (Rubisco) was 74.6 μmol × mg^−1chl × h^−1. The Activity (Phosphglycerate kinase) was 57 μmol × mg^−1chl × h^−1, the Activity (Aldolase) was 120 μmol × mg^−1chl × h^−1 and the “inhibition of triose phosphate isomerase compared to GAPDH” value [2] was “inhibited at lower concentrations of Ornidazole and in a concentration-dependent manner”. For the same compound, the “Ornidazole remaining, of its initial concentration” value (Anabaena PCC7120; after four days of incubation) was 10% and the “Ornidazole detection in medium” value (Anabaena PCC7120; after seven days) was “could no longer be detected”.

Reference: US9237750B2, “Ornidazole and related compounds for use as herbicides” (RAMOT AT TEL-AVIV UNIVERSITY LTD., priority 2012, dated 2016)
